Test system: strains of Enterobacteriaceae producing various carbapenemases (class A, D and B; 104 strains)
Experiment: Antibiotics potentiation by Compound 27 (MIC; meropenem, doripenem, ertapenem, cefepime)
Assay type: cell-based
Conditions: + 27 = with Compound 27 at fixed 4 μg/ml

Q: Which results are given for `C[C@@H](O)[C@H]1C(=O)N2C(C(=O)O)=C(S[C@@H]3CN[C@H](C(=O)Nc4cccc(C(=O)O)c4)C3)[C@H](C)[C@H]12` [E]?
A: MIC (strain KP1081 Klebsiella pneumoniae (NDM-1, TEM-1, SHV-11, CMY-6, CTX-M-15)): Z (MIC of greater than 10 μg/mL); MIC (strain KP1082 Klebsiella pneumoniae (KPC-2, SHV-1)): Z (MIC of greater than 10 μg/mL); MIC (strain KP1083 Klebsiella pneumoniae (KPC-3, SHV-1, TEM-1)): Z (MIC of greater than 10 μg/mL); MIC (strain KP1084 Klebsiella pneumoniae (KPC-3, SHV-11, TEM-1)): Z (MIC of greater than 10 μg/mL); MIC (strain KP1086 Klebsiella pneumoniae (OXA-48, CTX-M-15, TEM, SHV)): Z (MIC of greater than 10 μg/mL); MIC (strain KP1087 Klebsiella pneumoniae (KPC-2, CTX-M-15, SHV-11, TEM-1)): Z (MIC of greater than 10 μg/mL); MIC (strain KP1088 Klebsiella pneumoniae (KPC-3, SHV-11, TEM-1)): Z (MIC of greater than 10 μg/mL); MIC (strain KP1089 Klebsiella pneumonias (OXA-181, CTX-M-15, TEM, SHV)): Z (MIC of greater than 10 μg/mL); MIC (strain KP1095 Klebsiella pneumoniae (KPC-2 TEM-1 SHV-1)): Y (MIC of 1 μg/mL to 10 μg/mL); MIC (strain KP1096 Klebsiella pneumoniae (KPC-2 TEM-181 SHV-11)): Z (MIC of greater than 10 μg/mL); MIC (strain KP1097 Klebsiella pneumonias (IMP-1)): Z (MIC of greater than 10 μg/mL); MIC (strain KP1098 Klebsiella pneumoniae (IMP-26)): Z (MIC of greater than 10 μg/mL); MIC (strain KP1104 Klebsiella pneumoniae (KPC TEM)): Z (MIC of greater than 10 μg/mL); MIC (strain KP1105 Klebsiella pneumoniae (KPC TEM SHV)): Z (MIC of greater than 10 μg/mL); MIC (strain KP1159 Klebsiella pneumoniae (SHV-1(2b); CTX-M-15; IMP-4)): Z (MIC of greater than 10 μg/mL); MIC (strain KP1160 Klebsiella pneumoniae (SHV-28(2be); CTX-M-15; IMP-26)): Z (MIC of greater than 10 μg/mL); MIC (strain KP1161 Klebsiella pneumoniae (NDM-1)): Z (MIC of greater than 10 μg/mL); MIC (strain KP1164 Klebsiella pneumoniae (SHV-12(2be); VIM-1)): Z (MIC of greater than 10 μg/mL); MIC (strain KP1165 Klebsiella pneumoniae (SHV-11(2b); CTX-M-15; VIM-27)): Z (MIC of greater than 10 μg/mL); MIC (strain KP1166 Klebsiella pneumoniae (SHV-5(2be); VIM-26)): Z (MIC of greater than 10 μg/mL); MIC (strain KP1167 Klebsiella pneumoniae (SHV-12(2be); VIM-1)): Y (MIC of 1 μg/mL to 10 μg/mL); MIC (strain KP1169 Klebsiella pneumoniae (SHV-11(2b); VIM-1)): Y (MIC of 1 μg/mL to 10 μg/mL); MIC (strain KP1170 Klebsiella pneumoniae (SHV-11(2b); CTX-M-15; NDM-1)): Z (MIC of greater than 10 μg/mL); MIC (strain KP1172 Klebsiella pneumoniae (SHV-31(2be); DHA-1; VIM-1)): Y (MIC of 1 μg/mL to 10 μg/mL); MIC (strain KP1173 Klebsiella pneumoniae (TEM-33(2br); CTX-M-15; IMP-1)): Y (MIC of 1 μg/mL to 10 μg/mL); MIC (strain KP1174 Klebsiella pneumoniae (CTX-M-14; IMP-1)): Z (MIC of greater than 10 μg/mL); MIC (strain KP1175 Klebsiella pneumoniae (SHV-OSBL(2b); VIM-1)): Z (MIC of greater than 10 μg/mL); MIC (strain KP1177 Klebsiella pneumoniae (SHV-OSBL(2b), TEM-OSBL(2b); CTX-M-15; NDM-1)): Z (MIC of greater than 10 μg/mL); MIC (strain KP1178 Klebsiella pneumoniae (SHV-OSBL(2b;) TEM-OSBL(2b); CTX-M-15; NDM-1)): Z (MIC of greater than 10 μg/mL); MIC (strain KP1179 Klebsiella pneumoniae (SHV-12(2be), TEM-OSBL(2b); CTX-M-15; NDM-7)): Z (MIC of greater than 10 μg/mL); MIC (strain KP1180 Klebsiella pneumoniae (SHV-OSBL(2b), TEM-OSBL(2b); CTX-M-15; DHA-1; IMP-26)): Y (MIC of 1 μg/mL to 10 μg/mL); MIC (strain KP1181 Klebsiella pneumoniae (SHV-OSBL(2b); CTX-M-15; IMP-26)): Y (MIC of 1 μg/mL to 10 μg/mL); MIC (strain KP1183 Klebsiella pneumoniae (SHV-OSBL(2b), TEM-OSBL(2b); CTX-M-15; NDM-1)): Z (MIC of greater than 10 μg/mL); MIC (strain KP1184 Klebsiella pneumoniae (SHV-OSBL(2b); IMP-1)): Y (MIC of 1 μg/mL to 10 μg/mL); MIC (strain KP1185 Klebsiella pneumoniae (SHV-OSBL(2b), TEM-OSBL(2b); IMP-4)): Z (MIC of greater than 10 μg/mL); MIC (strain KP1186 Klebsiella pneumoniae (CTX-M-15; NDM-1)): Z (MIC of greater than 10 μg/mL); MIC (strain KP1187 Klebsiella pneumoniae (SHV-55(2be), TEM-OSBL(2b); CTX-M-15; NDM-1)): Z (MIC of greater than 10 μg/mL); MIC (strain KP1188 Klebsiella pneumoniae (SHV-OSBL(2b); CTX-M-15; NDM-1)): Z (MIC of greater than 10 μg/mL); MIC (strain KP1189 Klebsiella pneumoniae (TEM-OSBL(2b); CTX-M-15; CTX-M-27; NDM-1)): Z (MIC of greater than 10 μg/mL); MIC (strain KPM1123 Klebsiella pneumoniae (KPC-2 TEM SHV)): Z (MIC of greater than 10 μg/mL); MIC (strain KPM1202 Klebsiella pneumoniae (KPC SHV TEM)): Z (MIC of greater than 10 μg/mL); MIC (strain KPM1203 Klebsiella pneumoniae (KPC SHV TEM)): Y (MIC of 1 μg/mL to 10 μg/mL); MIC (strain KPM1344 Klebsiella pneumoniae (VIM-1)): Y (MIC of 1 μg/mL to 10 μg/mL); MIC (strain KPM1345 Klebsiella pneumoniae (VIM-1 SHV)): Y (MIC of 1 μg/mL to 10 μg/mL); MIC (strain KPM1347 Klebsiella pneumoniae (NDM-1 SHV CTX-M-15)): Z (MIC of greater than 10 μg/mL); MIC (strain KX1017 Klebsiella oxytoca (KPC-2, OXA-2, SHV-30)): Z (MIC of greater than 10 μg/mL); MIC (strain KX1018 Klebsiella oxytoca (KPC-2, SHV-40, OXY-1)): Y (MIC of 1 μg/mL to 10 μg/mL); MIC (strain KX1019 Klebsiella oxytoca (KPC-2, OXA-2)): Z (MIC of greater than 10 μg/mL); MIC (strain PM1024 Proteus mirabilis (TEM-1(2b); CMY-16; VIM-1)): Y (MIC of 1 μg/mL to 10 μg/mL); MIC (strain PM1026 Proteus mirabilis (DHA-1; IMP-26)): Y (MIC of 1 μg/mL to 10 μg/mL); MIC (strain PM1027 Proteus mirabilis (VIM-5)): Z (MIC of greater than 10 μg/mL); MIC (strain SM1023 Serratia marcescens (VIM-4)): Z (MIC of greater than 10 μg/mL)
